According to the supplement of paper PMC10307832:

Columns and labels:
Assay in all cases: relative viability (nuclei count vs DMSO), 5 days (fraction); higher = more cells survive
Olaparib + Dasatinib = compound: O=C(c1cc(Cc2n[nH]c(=O)c3ccccc23)ccc1F)N1CCN(C(=O)C2CC2)CC1 [Olaparib] + Cc1nc(Nc2ncc(C(=O)Nc3c(C)cccc3Cl)s2)cc(N2CCN(CCO)CC2)n1 [Dasatinib] (partner 0.075 µM)
Procedure, shortened: (§1)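 Relative viability is defined as nuclei in treated wells over nuclei in vehicle wells. Duplicate plates were run and medians reported. Lung cancer cell lines in 1536-well plates were dosed by pin tool one day after seeding, with one drug or with a fixed anchor-drug dose plus five library-drug doses (not always all listed) in √10 steps, and nuclei were counted after 5 days.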

Carfilzomib + Crizotinib = compound: CC(C)C[C@H](NC(=O)[C@H](CCc1ccccc1)NC(=O)CN1CCOCC1)C(=O)N[C@@H](Cc1ccccc1)C(=O)N[C@@H](CC(C)C)C(=O)[C@@]1(C)CO1 [Carfilzomib] + C[C@@H](Oc1cc(-c2cnn(C3CCNCC3)c2)cnc1N)c1c(Cl)ccc(F)c1Cl [Crizotinib] (partner 1 µM)
Procedure, shortened: as §1

Olaparib + Pemetrexed = compound: O=C(c1cc(Cc2n[nH]c(=O)c3ccccc23)ccc1F)N1CCN(C(=O)C2CC2)CC1 [Olaparib] + Nc1nc2[nH]cc(CCc3ccc(C(=O)N[C@@H](CCC(=O)O)C(=O)O)cc3)c2c(=O)[nH]1 [Pemetrexed] (partner 0.2 µM)
Procedure, shortened: as §1

Olaparib + Palbociclib = compound: O=C(c1cc(Cc2n[nH]c(=O)c3ccccc23)ccc1F)N1CCN(C(=O)C2CC2)CC1 [Olaparib] + CC(=O)c1c(C)c2cnc(Nc3ccc(N4CCNCC4)cn3)nc2n(C2CCCC2)c1=O [Palbociclib] (partner 0.5 µM)
Procedure, shortened: as §1

Row | Cell Line | relative viability (Olaparib + Dasatinib; first compound 0.08 µM) | relative viability (Olaparib + Dasatinib; first compound 0.253 µM) | relative viability (Olaparib + Dasatinib; first compound 2.53 µM) | relative viability (Olaparib + Dasatinib; first compound 8 µM) | relative viability (Carfilzomib + Crizotinib; first compound 0.001 µM) | relative viability (Carfilzomib + Crizotinib; first compound 0.003162 µM) | relative viability (Carfilzomib + Crizotinib; first compound 0.01 µM) | relative viability (Carfilzomib + Crizotinib; first compound 0.03162 µM) | relative viability (Carfilzomib + Crizotinib; first compound 0.1 µM) | relative viability (Olaparib + Pemetrexed; first compound 0.08 µM) | relative viability (Olaparib + Pemetrexed; first compound 0.253 µM) | relative viability (Olaparib + Pemetrexed; first compound 2.53 µM) | relative viability (Olaparib + Pemetrexed; first compound 8 µM) | relative viability (Olaparib + Palbociclib; first compound 0.08 µM) | relative viability (Olaparib + Palbociclib; first compound 0.253 µM) | relative viability (Olaparib + Palbociclib; first compound 2.53 µM) | relative viability (Olaparib + Palbociclib; first compound 8 µM)
1 | HOP-62 | 0.691 | 0.563 | 0.579 | 0.492 | 0.952 | 0.966 | 0.845 | 0.099 | 0.0686 | 0.353 | 0.316 | 0.337 | 0.322 | 0.469 | 0.454 | 0.361 | 0.319
2 | IA-LM | – | – | – | – | 0.956 | 0.796 | 0.502 | 0.0235 | 0.0632 | – | – | – | – | – | – | – | –
3 | LC-2-ad | 0.99 | 0.454 | 0.472 | 0.491 | 0.508 | 0.485 | 0.428 | 0.371 | 0.279 | 0.25 | 0.252 | 0.28 | 0.276 | 0.472 | 0.451 | 0.493 | 0.399
4 | LCLC-97TM1 | 0.871 | 0.789 | 0.857 | 0.776 | 0.354 | 0.339 | 0.352 | 0.0915 | 0.129 | 0.209 | 0.209 | 0.2 | 0.141 | 0.24 | 0.226 | 0.206 | 0.166
5 | LCLC-103H | 0.61 | 0.49 | 0.445 | 0.532 | 1.03 | 1.01 | 1.07 | 0.888 | 0.204 | 0.421 | 0.499 | 0.493 | 0.426 | 0.524 | 0.455 | 0.513 | 0.494
6 | LK-2 | 0.27 | 0.329 | 0.271 | 0.225 | – | 0.237 | 0.16 | 0.262 | 0.209 | 0.298 | 0.304 | 0.257 | 0.327 | 0.697 | 0.723 | 0.888 | 0.697
7 | LOU-NH91 | 0.6 | 0.473 | 0.525 | 0.589 | 0.818 | 0.798 | 0.77 | 0.434 | 0.277 | 0.389 | 0.366 | 0.381 | 0.343 | 0.55 | 0.538 | 0.526 | 0.533
8 | LU99A | 0.624 | 0.467 | 0.506 | 0.228 | 0.585 | 0.667 | 0.584 | 0.291 | 0.16 | 0.187 | 0.212 | 0.161 | 0.148 | 0.45 | 0.392 | 0.31 | 0.323
9 | LXF-289 | 0.217 | 0.172 | 0.196 | 0.171 | 0.797 | 0.857 | 0.855 | 0.148 | 0.0565 | 1 | 0.883 | 0.963 | 1 | 0.635 | 0.6 | 0.684 | 0.689
10 | NCI-H23 | 0.922 | 0.802 | 0.61 | 0.488 | 0.637 | 0.612 | 0.587 | 0.153 | 0.134 | 0.756 | 0.614 | 0.654 | 0.473 | 0.586 | 0.542 | 0.475 | 0.5
11 | NCI-H322M | 0.251 | 0.231 | 0.248 | 0.252 | 0.935 | 0.864 | 0.938 | 0.795 | 0.252 | 0.607 | 0.608 | 0.619 | 0.544 | 0.468 | 0.408 | 0.515 | 0.462
12 | NCI-H358 | 0.152 | 0.181 | 0.167 | 0.146 | 0.712 | 0.802 | 0.525 | 0.104 | 0.144 | 0.159 | 0.172 | 0.176 | 0.152 | 0.124 | 0.137 | 0.125 | 0.14
13 | NCI-H441 | 0.818 | 0.542 | 0.651 | 0.589 | 0.7 | 1.15 | 0.362 | 0.1 | 0.127 | 0.28 | 0.279 | 0.287 | 0.239 | 0.268 | 0.257 | 0.234 | 0.243
14 | NCI-H522 | 0.913 | 0.884 | 0.846 | 0.782 | – | – | – | – | – | 1.05 | 0.931 | 0.833 | 1.04 | 1.14 | 0.859 | 0.87 | 0.889
15 | NCI-H596 | 0.597 | 0.68 | 0.583 | 0.454 | 0.916 | 1.28 | 1 | 0.77 | 0.334 | 0.592 | 0.496 | 0.493 | 0.543 | – | – | – | –
16 | NCI-H727 | 0.439 | 0.405 | 0.469 | 0.324 | 0.84 | 0.682 | 0.871 | 0.223 | 0.141 | – | – | – | – | 0.655 | 0.601 | 0.618 | 0.561
17 | NCI-H1299 | – | – | – | – | 1.01 | 0.966 | 0.981 | 0.472 | 0.178 | – | – | – | – | – | – | – | –
18 | NCI-H1395 | 0.465 | 0.358 | 0.39 | 0.419 | – | – | – | – | – | 0.8 | 0.565 | 0.564 | 0.497 | 0.649 | 0.611 | 0.6 | 0.499
19 | NCI-H1563 | 0.485 | 0.516 | 0.465 | 0.42 | 0.939 | 0.902 | 0.897 | 0.711 | 0.397 | 0.91 | 0.76 | 0.834 | 0.686 | – | – | – | –
20 | NCI-H1623 | 0.568 | 0.504 | 0.6 | 0.494 | – | – | – | – | – | – | – | – | – | – | – | – | –
21 | NCI-H1648 | – | – | – | – | – | – | – | – | – | 0.967 | 0.708 | – | 0.735 | 0.236 | 0.305 | – | 0.246
22 | NCI-H1703 | – | – | – | – | 0.579 | 0.73 | 0.168 | 0.0733 | 0.0878 | – | – | – | – | – | – | – | –
23 | NCI-H2342 | 0.293 | 0.262 | 0.312 | 0.293 | – | – | – | – | – | 0.806 | 0.751 | 0.753 | 0.761 | 0.532 | 0.503 | 0.471 | 0.474
24 | SW 900 | 0.57 | 0.815 | 0.624 | 0.615 | – | – | – | – | – | 0.502 | 0.461 | 0.456 | 0.457 | 0.606 | 0.492 | 0.595 | 0.476
